Test results published in PubChem BioAssay (NCI).
Converted amounts (≈) assume the structure as drawn.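 Exposure lasted 48 hours, with cells grown in 96-well plates and compounds tested at five concentrations. GI50 = concentration required for 50% inhibition of growth. At the TGI there is no net growth.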

Key:
Assay in all cases: inhibition of tumour cell growth, NCI panel, 48 h
UO-31 renal = test system: UO-31 renal
MOLT-4 leukemia = test system: MOLT-4 leukemia
RPMI-8226 leukemia = test system: RPMI-8226 leukemia
K-562 leukemia = test system: K-562 leukemia
NCI-H460 lung = test system: NCI-H460 lung
SW-620 colon = test system: SW-620 colon
SK-OV-3 ovarian = test system: SK-OV-3 ovarian
T-47D breast = test system: T-47D breast
COLO 205 colon = test system: COLO 205 colon
SNB-19 CNS = test system: SNB-19 CNS
LOX IMVI melanoma = test system: LOX IMVI melanoma
HOP-92 NSCLC = test system: HOP-92 NSCLC
A549 NSCLC = test system: A549 NSCLC
HCC-2998 colon = test system: HCC-2998 colon
SK-MEL-2 melanoma = test system: SK-MEL-2 melanoma
SK-MEL-28 melanoma = test system: SK-MEL-28 melanoma
UACC-62 melanoma = test system: UACC-62 melanoma
TK-10 renal = test system: TK-10 renal
NCI-H522 lung = test system: NCI-H522 lung
OVCAR-8 ovarian = test system: OVCAR-8 ovarian
PC-3 prostate = test system: PC-3 prostate
HCT-15 colon = test system: HCT-15 colon
SR leukemia = test system: SR leukemia
CAKI-1 renal = test system: CAKI-1 renal
MDA-MB-435 = test system: MDA-MB-435
MCF7 breast = test system: MCF7 breast
IGROV1 ovarian = test system: IGROV1 ovarian
OVCAR-5 ovarian = test system: OVCAR-5 ovarian
ACHN renal = test system: ACHN renal
U251 CNS = test system: U251 CNS
OVCAR-4 ovarian = test system: OVCAR-4 ovarian
BT-549 breast = test system: BT-549 breast
786-0 renal = test system: 786-0 renal
CCRF-CEM leukemia = test system: CCRF-CEM leukemia
SNB-75 CNS = test system: SNB-75 CNS
MALME-3M melanoma = test system: MALME-3M melanoma
SF-268 CNS = test system: SF-268 CNS
NCI/ADR-RES ovarian = test system: NCI/ADR-RES ovarian
UACC-257 melanoma = test system: UACC-257 melanoma
SN12C renal = test system: SN12C renal
HL-60(TB) leukemia = test system: HL-60(TB) leukemia
HCT-116 colon = test system: HCT-116 colon
NCI-H23 lung = test system: NCI-H23 lung
SF-295 CNS = test system: SF-295 CNS
HT29 colon = test system: HT29 colon
KM12 colon = test system: KM12 colon
SK-MEL-5 melanoma = test system: SK-MEL-5 melanoma
MDA-MB-231 breast = test system: MDA-MB-231 breast
OVCAR-3 ovarian = test system: OVCAR-3 ovarian
M14 melanoma = test system: M14 melanoma
DU-145 prostate = test system: DU-145 prostate
EKVX NSCLC = test system: EKVX NSCLC
HS 578T breast = test system: HS 578T breast
A498 renal = test system: A498 renal

C=CCN(CC=C)Cc1c[nH]c2ccccc12 was tested, and the GI50 (UO-31 renal) was 35.2 µM, the TGI (UO-31 renal) was > 100 µM and the GI50 (MOLT-4 leukemia) was 72.7 µM. For the same molecule, the TGI (MOLT-4 leukemia) was > 100 µM, the GI50 (RPMI-8226 leukemia) was 17.8 µM and the TGI (RPMI-8226 leukemia) was > 100 µM. The GI50 (K-562 leukemia) was 50.2 µM, the TGI (K-562 leukemia) was > 100 µM and the GI50 (NCI-H460 lung) was 21.8 µM. The TGI (NCI-H460 lung) was 62.3 µM, the GI50 (SW-620 colon) was 26.3 µM and the TGI (SW-620 colon) was > 100 µM. For the same molecule, the GI50 (SK-OV-3 ovarian) was > 100 µM, the TGI (SK-OV-3 ovarian) was > 100 µM and the GI50 (T-47D breast) was > 100 µM. The TGI (T-47D breast) was > 100 µM, the GI50 (COLO 205 colon) was 18.4 µM and the TGI (COLO 205 colon) was > 100 µM. For the same molecule, the GI50 (SNB-19 CNS) was > 100 µM, the TGI (SNB-19 CNS) was > 100 µM and the GI50 (LOX IMVI melanoma) was 27.4 µM. For the same molecule, the TGI (LOX IMVI melanoma) was > 100 µM, the GI50 (HOP-92 NSCLC) was > 100 µM and the TGI (HOP-92 NSCLC) was > 100 µM. For the same molecule, the GI50 (A549 NSCLC) was 31.5 µM, the TGI (A549 NSCLC) was > 100 µM and the GI50 (HCC-2998 colon) was 27.8 µM. The TGI (HCC-2998 colon) was 72.7 µM, the GI50 (SK-MEL-2 melanoma) was 15.3 µM and the TGI (SK-MEL-2 melanoma) was 38.3 µM. For the same molecule, the GI50 (SK-MEL-28 melanoma) was > 100 µM, the TGI (SK-MEL-28 melanoma) was > 100 µM and the GI50 (UACC-62 melanoma) was 18.1 µM. The TGI (UACC-62 melanoma) was 54.1 µM, the GI50 (TK-10 renal) was 6.93 µM and the TGI (TK-10 renal) was 38.7 µM. It also gave a GI50 (NCI-H522 lung) of 14.9 µM, a TGI (NCI-H522 lung) of 33.8 µM and a GI50 (OVCAR-8 ovarian) of 11.9 µM. The TGI (OVCAR-8 ovarian) was 69 µM, the GI50 (PC-3 prostate) was 32.4 µM and the TGI (PC-3 prostate) was > 100 µM. The GI50 (HCT-15 colon) was 32.8 µM, the TGI (HCT-15 colon) was > 100 µM and the GI50 (SR leukemia) was 30.3 µM. The TGI (SR leukemia) was > 100 µM, the GI50 (CAKI-1 renal) was 19.8 µM and the TGI (CAKI-1 renal) was > 100 µM. The GI50 (MDA-MB-435) was 10.9 µM, the TGI (MDA-MB-435) was 32.9 µM and the GI50 (MCF7 breast) was 3 µM. The TGI (MCF7 breast) was 19.7 µM, the GI50 (IGROV1 ovarian) was 16 µM and the TGI (IGROV1 ovarian) was 42.6 µM. For the same molecule, the GI50 (OVCAR-5 ovarian) was 17 µM, the TGI (OVCAR-5 ovarian) was 34.6 µM and the GI50 (ACHN renal) was 36.3 µM. For the same molecule, the TGI (ACHN renal) was > 100 µM, the GI50 (U251 CNS) was 13.2 µM and the TGI (U251 CNS) was 31.2 µM. For the same molecule, the GI50 (OVCAR-4 ovarian) was > 100 µM, the TGI (OVCAR-4 ovarian) was > 100 µM and the GI50 (BT-549 breast) was 2.31 µM. It also gave a TGI (BT-549 breast) of 8.33 µM, a GI50 (786-0 renal) of 4.33 µM and a TGI (786-0 renal) of 14.7 µM. For the same molecule, the GI50 (CCRF-CEM leukemia) was 56.9 µM, the TGI (CCRF-CEM leukemia) was > 100 µM and the GI50 (SNB-75 CNS) was > 100 µM. The TGI (SNB-75 CNS) was > 100 µM, the GI50 (MALME-3M melanoma) was 7.83 µM and the TGI (MALME-3M melanoma) was 67.7 µM. It also gave a GI50 (SF-268 CNS) of 11.5 µM, a TGI (SF-268 CNS) of 32.5 µM and a GI50 (NCI/ADR-RES ovarian) of 18.3 µM. The TGI (NCI/ADR-RES ovarian) was 43.8 µM, the GI50 (UACC-257 melanoma) was 8.63 µM and the TGI (UACC-257 melanoma) was 28 µM. For the same molecule, the GI50 (SN12C renal) was 16 µM, the TGI (SN12C renal) was 41.8 µM and the GI50 (HL-60(TB) leukemia) was 84.2 µM. For the same molecule, the TGI (HL-60(TB) leukemia) was > 100 µM, the GI50 (HCT-116 colon) was 14.6 µM and the TGI (HCT-116 colon) was 32.1 µM. It also gave a GI50 (NCI-H23 lung) of 14 µM, a TGI (NCI-H23 lung) of 52.8 µM and a GI50 (SF-295 CNS) of 21 µM. The TGI (SF-295 CNS) was > 100 µM, the GI50 (HT29 colon) was 41.9 µM and the TGI (HT29 colon) was > 100 µM. For the same molecule, the GI50 (KM12 colon) was 32.2 µM, the TGI (KM12 colon) was > 100 µM and the GI50 (SK-MEL-5 melanoma) was 6 µM. It also gave a TGI (SK-MEL-5 melanoma) of 23.8 µM, a GI50 (MDA-MB-231 breast) of 23.4 µM and a TGI (MDA-MB-231 breast) of 54.8 µM.

Work on CC(C)(C)OC(=O)CC(NC(=O)OCc1ccccc1)NC(=O)OC(C)(C)C (stereo not drawn) yielded a GI50 (UO-31 renal) of 27 µg/mL, a GI50 (MOLT-4 leukemia) of 23.5 µg/mL and a TGI (MOLT-4 leukemia) of 55.6 µg/mL. The GI50 (RPMI-8226 leukemia) was 32.8 µg/mL, the GI50 (K-562 leukemia) was 38.2 µg/mL and the GI50 (NCI-H460 lung) was 39.8 µg/mL. It also gave a GI50 (OVCAR-3 ovarian) of 62.7 µg/mL (≈ 159 µM), a GI50 (T-47D breast) of 26 µg/mL and a GI50 (COLO 205 colon) of 50.6 µg/mL. It also gave a GI50 (SNB-19 CNS) of 76.2 µg/mL, a GI50 (LOX IMVI melanoma) of 71.2 µg/mL and a GI50 (HOP-92 NSCLC) of 69.2 µg/mL. It also gave a GI50 (A549 NSCLC) of 35.2 µg/mL, a GI50 (HCC-2998 colon) of 94.4 µg/mL and a GI50 (SK-MEL-2 melanoma) of 48.1 µg/mL. For the same molecule, the GI50 (SK-MEL-28 melanoma) was 67.6 µg/mL, the GI50 (UACC-62 melanoma) was 57.2 µg/mL and the GI50 (NCI-H522 lung) was 32.9 µg/mL. For the same molecule, the GI50 (OVCAR-8 ovarian) was 57.5 µg/mL, the GI50 (M14 melanoma) was 56.8 µg/mL (≈ 144 µM) and the GI50 (HCT-15 colon) was 56 µg/mL. The GI50 (SR leukemia) was 27.8 µg/mL, the TGI (SR leukemia) was 67.7 µg/mL and the GI50 (MDA-MB-435) was 87.9 µg/mL. For the same molecule, the GI50 (DU-145 prostate) was 72.3 µg/mL (≈ 183 µM), the GI50 (MCF7 breast) was 44.1 µg/mL and the GI50 (ACHN renal) was 51.5 µg/mL. It also gave a GI50 (U251 CNS) of 67.5 µg/mL, a GI50 (EKVX NSCLC) of 38.8 µg/mL (≈ 98.4 µM) and a GI50 (OVCAR-4 ovarian) of 78.9 µg/mL. The GI50 (BT-549 breast) was 14.2 µg/mL, the GI50 (CCRF-CEM leukemia) was 35.4 µg/mL and the GI50 (HS 578T breast) was 85.4 µg/mL (≈ 217 µM). It also gave a GI50 (SNB-75 CNS) of 20.8 µg/mL, a GI50 (MALME-3M melanoma) of 46 µg/mL and a GI50 (SF-268 CNS) of 87.1 µg/mL. It also gave a GI50 (NCI/ADR-RES ovarian) of 33.5 µg/mL, a GI50 (UACC-257 melanoma) of 35.8 µg/mL and a GI50 (SN12C renal) of 51.9 µg/mL. For the same molecule, the GI50 (HL-60(TB) leukemia) was 20.8 µg/mL, the TGI (HL-60(TB) leukemia) was 50.7 µg/mL and the GI50 (HCT-116 colon) was 52.1 µg/mL. For the same molecule, the GI50 (A498 renal) was 76.4 µg/mL (≈ 194 µM), the GI50 (NCI-H23 lung) was 39.1 µg/mL and the GI50 (SF-295 CNS) was 46.2 µg/mL. For the same molecule, the GI50 (KM12 colon) was 40.3 µg/mL and the GI50 (MDA-MB-231 breast) was 52.8 µg/mL.
